Reference: ChEMBL document CHEMBL4251615, “Discovery of anilino-furo[2,3-d]pyrimidine derivatives as dual inhibitors of EGFR/HER2 tyrosine kinase and their anticancer activity” (Eur J Med Chem, 2018)
Calls of active or inactive are those of the source. No cut-off for these calls is given here.

Test system: Ehrlich
Test: Antitumor activity against mouse EAC cells implanted in albino mouse assessed as cell death in thigh muscle tumor cells at 10 mg/kg, po once daily for 8 consecutive days by hematoxylin and eosin staining based light microscopic method
Type: functional, organism-based
Settings: not given

SMILES | Activity
Cc1oc2ncnc(Nc3cccc(Br)c3)c2c1C(=O)O | Active
COc1cc2ncnc(Nc3ccc(F)c(Cl)c3)c2cc1OCCCN1CCOCC1 [GEFITINIB] | Active
CCOC(=O)c1c(C)oc2ncnc(Nc3ccc(OCc4cccc(F)c4)c(Cl)c3)c12 | Active

Test system: A549
Test: Induction of apoptosis in human A549 cells assessed as increase in late apoptotic cells after 24 hrs by Annexin V-FITC/propidium iodide staining based flow cytometry relative to control
Type: functional
Settings: not given

SMILES | fold change (FC)
CCOC(=O)c1c(C)oc2ncnc(Nc3ccc(OCc4cccc(F)c4)c(Cl)c3)c12 | 79

Molecular target: T1, Epidermal growth factor receptor (Homo sapiens, UniProt P00533)
T1 sequence (P00533 whole entry, the tested form may be a part): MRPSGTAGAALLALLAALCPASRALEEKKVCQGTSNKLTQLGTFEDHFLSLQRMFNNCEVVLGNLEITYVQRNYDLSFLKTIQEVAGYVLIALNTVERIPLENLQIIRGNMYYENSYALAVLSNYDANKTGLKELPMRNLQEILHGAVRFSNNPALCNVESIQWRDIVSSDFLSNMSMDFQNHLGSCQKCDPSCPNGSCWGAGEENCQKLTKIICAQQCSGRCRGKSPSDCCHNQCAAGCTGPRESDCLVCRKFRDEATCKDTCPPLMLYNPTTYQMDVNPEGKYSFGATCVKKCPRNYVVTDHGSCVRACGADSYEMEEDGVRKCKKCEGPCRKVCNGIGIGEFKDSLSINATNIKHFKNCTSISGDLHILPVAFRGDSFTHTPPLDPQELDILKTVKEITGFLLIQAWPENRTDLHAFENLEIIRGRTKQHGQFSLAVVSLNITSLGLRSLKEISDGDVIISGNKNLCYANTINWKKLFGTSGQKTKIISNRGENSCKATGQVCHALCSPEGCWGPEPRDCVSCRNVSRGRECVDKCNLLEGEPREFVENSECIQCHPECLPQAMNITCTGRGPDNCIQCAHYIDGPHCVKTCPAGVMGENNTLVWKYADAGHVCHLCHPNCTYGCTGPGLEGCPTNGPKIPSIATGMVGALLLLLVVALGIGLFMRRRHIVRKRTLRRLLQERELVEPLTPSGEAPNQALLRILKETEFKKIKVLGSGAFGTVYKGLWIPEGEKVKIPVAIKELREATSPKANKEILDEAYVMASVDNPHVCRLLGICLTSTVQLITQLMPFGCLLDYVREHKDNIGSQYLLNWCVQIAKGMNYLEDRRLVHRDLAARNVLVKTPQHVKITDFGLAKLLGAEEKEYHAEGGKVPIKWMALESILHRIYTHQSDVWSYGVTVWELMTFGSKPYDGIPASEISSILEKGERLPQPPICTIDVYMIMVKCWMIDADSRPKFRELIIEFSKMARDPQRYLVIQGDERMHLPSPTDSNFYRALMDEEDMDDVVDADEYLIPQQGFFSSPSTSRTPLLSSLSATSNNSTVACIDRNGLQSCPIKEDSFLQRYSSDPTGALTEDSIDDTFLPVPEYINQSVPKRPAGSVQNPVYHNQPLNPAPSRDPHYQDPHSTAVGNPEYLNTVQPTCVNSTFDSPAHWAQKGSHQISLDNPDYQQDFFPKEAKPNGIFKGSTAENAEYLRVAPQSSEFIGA
Test: Inhibition of recombinant human C-terminal His/N-terminal GST-tagged EGFR (668 to 1210 residues) expressed in baculovirus infected Sf9 cells using biotin-labeled poly[Glu:Tyr] (4:1) as substrate after 30 mins by Kinase-Glo plus luminescence assay
Settings: not given

IC50 [µM] | SMILES
0.951 | Cc1oc2ncnc(Nc3ccc(OCc4cccc(F)c4)c(Cl)c3)c2c1C(=O)O
0.752 | Cc1oc2ncnc(Nc3cccc(Br)c3)c2c1C(=O)O
2.7 | Cc1oc2ncnc(Nc3cccc(Cl)c3)c2c1C(=O)NCCO

Test system: Mus musculus
Test: Toxicity in albino mouse implanted with mouse EAC cells assessed as change in organ index at 5 to 10 mg/kg, po once daily for 8 consecutive days
Type: organism-based
Settings: in vivo

SMILES | Activity
Cc1oc2ncnc(Nc3ccc(OCc4cccc(F)c4)c(Cl)c3)c2c1C(=O)O | Non-Toxic
Cc1oc2ncnc(Nc3cccc(Br)c3)c2c1C(=O)O | Non-Toxic
CCOC(=O)c1c(C)oc2ncnc(Nc3ccc(OCc4cccc(F)c4)c(Cl)c3)c12 | Non-Toxic

Test system: A549
Test: Induction of apoptosis in human A549 cells assessed as late apoptotic cells after 24 hrs by Annexin V-FITC/propidium iodide staining based flow cytometry (reference value: 0.11%)
Type: functional
Settings: not given

SMILES | Activity [%]
Cc1oc2ncnc(Nc3ccc(OCc4cccc(F)c4)c(Cl)c3)c2c1C(=O)O | 4.84
Cc1oc2ncnc(Nc3cccc(Br)c3)c2c1C(=O)O | 3.05
COc1cc2ncnc(Nc3ccc(F)c(Cl)c3)c2cc1OCCCN1CCOCC1 [GEFITINIB] | 6.72
CCOC(=O)c1c(C)oc2ncnc(Nc3ccc(OCc4cccc(F)c4)c(Cl)c3)c12 | 8.69

Test system: Ehrlich
Test: Antitumor activity against mouse EAC cells implanted in albino mouse assessed as tumor growth inhibition at 10 mg/kg, po once daily for 8 consecutive days relative to control
Type: functional
Settings: read-out: TGI

SMILES | inhibition in vivo at 10 mg/kg [%]
Cc1oc2ncnc(Nc3ccc(OCc4cccc(F)c4)c(Cl)c3)c2c1C(=O)O | 49
Cc1oc2ncnc(Nc3cccc(Br)c3)c2c1C(=O)O | 70.8
CCOC(=O)c1c(C)oc2ncnc(Nc3ccc(OCc4cccc(F)c4)c(Cl)c3)c12 | 67.1

Test system: Ehrlich
Test: Antitumor activity against mouse EAC cells implanted in albino mouse assessed as increase in cytochrome-c expression in tumor at 10 mg/kg, po once daily for 8 consecutive days by immunohistochemical analysis
Type: functional, organism-based
Settings: not given

SMILES | Activity
Cc1oc2ncnc(Nc3ccc(OCc4cccc(F)c4)c(Cl)c3)c2c1C(=O)O | Active
Cc1oc2ncnc(Nc3cccc(Br)c3)c2c1C(=O)O | Active
COc1cc2ncnc(Nc3ccc(F)c(Cl)c3)c2cc1OCCCN1CCOCC1 [GEFITINIB] | Active
CCOC(=O)c1c(C)oc2ncnc(Nc3ccc(OCc4cccc(F)c4)c(Cl)c3)c12 | Active

Test system: A549
Test: Cell cycle arrest in human A549 cells assessed as accumulation at G2/M phase after 24 hrs by propidium iodide staining based flow cytometry relative to control
Type: functional
Settings: not given

SMILES | fold change (FC)
Cc1oc2ncnc(Nc3ccc(OCc4cccc(F)c4)c(Cl)c3)c2c1C(=O)O | 3
Cc1oc2ncnc(Nc3cccc(Br)c3)c2c1C(=O)O | 2
CCOC(=O)c1c(C)oc2ncnc(Nc3ccc(OCc4cccc(F)c4)c(Cl)c3)c12 | 5

Test system: A549
Test: Induction of apoptosis in human A549 cells assessed as early apoptotic cells after 24 hrs by Annexin V-FITC/propidium iodide staining based flow cytometry (reference value: 0.26%)
Type: functional
Settings: not given

SMILES | Activity [%]
Cc1oc2ncnc(Nc3ccc(OCc4cccc(F)c4)c(Cl)c3)c2c1C(=O)O | 3.72
Cc1oc2ncnc(Nc3cccc(Br)c3)c2c1C(=O)O | 2.78
COc1cc2ncnc(Nc3ccc(F)c(Cl)c3)c2cc1OCCCN1CCOCC1 [GEFITINIB] | 5.84
CCOC(=O)c1c(C)oc2ncnc(Nc3ccc(OCc4cccc(F)c4)c(Cl)c3)c12 | 6.59

Test system: Ehrlich
Test: Antitumor activity against mouse EAC cells implanted in albino mouse assessed as increase in caspase-3 expression in tumor at 10 mg/kg, po once daily for 8 consecutive days by immunohistochemical analysis relative to control
Type: functional
Settings: not given

SMILES | Activity | fold change (FC)
Cc1oc2ncnc(Nc3ccc(OCc4cccc(F)c4)c(Cl)c3)c2c1C(=O)O | 51% | –
Cc1oc2ncnc(Nc3cccc(Br)c3)c2c1C(=O)O | – | >2
COc1cc2ncnc(Nc3ccc(F)c(Cl)c3)c2cc1OCCCN1CCOCC1 [GEFITINIB] | Active | –
CCOC(=O)c1c(C)oc2ncnc(Nc3ccc(OCc4cccc(F)c4)c(Cl)c3)c12 | – | >2

Test system: A549
Test: Cytotoxicity against human A549 cells assessed as reduction in cell viability after 72 hrs by MTT assay
Type: functional, cell-based
Settings: A549, 72 h

SMILES | IC50 [µM]
Cc1oc2ncnc(Nc3ccc(OCc4cccc(F)c4)c(Cl)c3)c2c1C(=O)O | 21.4
Cc1oc2ncnc(Nc3cccc(Br)c3)c2c1C(=O)O | 43
Cc1oc2ncnc(Nc3cccc(Cl)c3)c2c1C(=O)NCCO | > 1000
CCOC(=O)c1c(C)oc2ncnc(Nc3ccc(OCc4cccc(F)c4)c(Cl)c3)c12 | 0.5

Test system: MCF7
Test: Cytotoxicity against human MCF7 cells assessed as reduction in cell viability after 72 hrs by MTT assay
Type: functional, cell-based
Settings: MCF7, 72 h

SMILES | IC50 [µM]
Cc1oc2ncnc(Nc3ccc(OCc4cccc(F)c4)c(Cl)c3)c2c1C(=O)O | 46
Cc1oc2ncnc(Nc3cccc(Br)c3)c2c1C(=O)O | 68
Cc1oc2ncnc(Nc3cccc(Cl)c3)c2c1C(=O)NCCO | > 1000
CCOC(=O)c1c(C)oc2ncnc(Nc3ccc(OCc4cccc(F)c4)c(Cl)c3)c12 | 257

Molecular target: T1, Epidermal growth factor receptor
Test: Inhibition of recombinant human C-terminal His/N-terminal GST-tagged EGFR (668 to 1210 residues) expressed in baculovirus infected Sf9 cells at 10 uM using biotin-labeled poly[Glu:Tyr] (4:1) as substrate after 30 mins by Kinase-Glo plus luminescence assay relative to control
Settings: not given

inhibition [%] | SMILES
100 | Cc1oc2ncnc(Nc3ccc(OCc4cccc(F)c4)c(Cl)c3)c2c1C(=O)O
94 | Cc1oc2ncnc(Nc3cccc(Br)c3)c2c1C(=O)O
85 | Cc1oc2ncnc(Nc3cccc(Cl)c3)c2c1C(=O)NCCO
18 | CCOC(=O)c1c(C)oc2ncnc(Nc3ccc(OCc4cccc(F)c4)c(Cl)c3)c12

Test system: Ehrlich
Test: Antitumor activity against mouse EAC cells implanted in albino mouse assessed as tumor growth inhibition at 5 mg/kg, po once daily for 8 consecutive days relative to control
Type: functional
Settings: read-out: TGI

SMILES | inhibition in vivo at 5 mg/kg [%]
Cc1oc2ncnc(Nc3ccc(OCc4cccc(F)c4)c(Cl)c3)c2c1C(=O)O | 34.9
Cc1oc2ncnc(Nc3cccc(Br)c3)c2c1C(=O)O | 61.4
CCOC(=O)c1c(C)oc2ncnc(Nc3ccc(OCc4cccc(F)c4)c(Cl)c3)c12 | 35.1

Test system: Mus musculus
Test: Toxicity in albino mouse implanted with mouse EAC cells assessed as body weight change at 5 to 10 mg/kg, po once daily for 8 consecutive days
Type: organism-based
Settings: in vivo

SMILES | Activity
Cc1oc2ncnc(Nc3ccc(OCc4cccc(F)c4)c(Cl)c3)c2c1C(=O)O | Non-Toxic
Cc1oc2ncnc(Nc3cccc(Br)c3)c2c1C(=O)O | Non-Toxic
CCOC(=O)c1c(C)oc2ncnc(Nc3ccc(OCc4cccc(F)c4)c(Cl)c3)c12 | Non-Toxic

Test system: Ehrlich
Test: Antitumor activity against mouse EAC cells implanted in albino mouse assessed as focal cell death in thigh muscle tumor cells at 5 to 10 mg/kg, po once daily for 8 consecutive days by hematoxylin and eosin staining based light microscopic method
Type: functional, organism-based
Settings: not given

SMILES | Activity
Cc1oc2ncnc(Nc3ccc(OCc4cccc(F)c4)c(Cl)c3)c2c1C(=O)O | Active

Test system: A549
Test: Induction of apoptosis in human A549 cells assessed as increase in early apoptotic cells after 24 hrs by Annexin V-FITC/propidium iodide staining based flow cytometry relative to control
Type: functional
Settings: not given

SMILES | fold change (FC)
CCOC(=O)c1c(C)oc2ncnc(Nc3ccc(OCc4cccc(F)c4)c(Cl)c3)c12 | 25

Molecular target: Receptor tyrosine-protein kinase erbB-2 (Homo sapiens) (UniProt P04626)
Sequence (P04626 whole entry, the tested form may be a part): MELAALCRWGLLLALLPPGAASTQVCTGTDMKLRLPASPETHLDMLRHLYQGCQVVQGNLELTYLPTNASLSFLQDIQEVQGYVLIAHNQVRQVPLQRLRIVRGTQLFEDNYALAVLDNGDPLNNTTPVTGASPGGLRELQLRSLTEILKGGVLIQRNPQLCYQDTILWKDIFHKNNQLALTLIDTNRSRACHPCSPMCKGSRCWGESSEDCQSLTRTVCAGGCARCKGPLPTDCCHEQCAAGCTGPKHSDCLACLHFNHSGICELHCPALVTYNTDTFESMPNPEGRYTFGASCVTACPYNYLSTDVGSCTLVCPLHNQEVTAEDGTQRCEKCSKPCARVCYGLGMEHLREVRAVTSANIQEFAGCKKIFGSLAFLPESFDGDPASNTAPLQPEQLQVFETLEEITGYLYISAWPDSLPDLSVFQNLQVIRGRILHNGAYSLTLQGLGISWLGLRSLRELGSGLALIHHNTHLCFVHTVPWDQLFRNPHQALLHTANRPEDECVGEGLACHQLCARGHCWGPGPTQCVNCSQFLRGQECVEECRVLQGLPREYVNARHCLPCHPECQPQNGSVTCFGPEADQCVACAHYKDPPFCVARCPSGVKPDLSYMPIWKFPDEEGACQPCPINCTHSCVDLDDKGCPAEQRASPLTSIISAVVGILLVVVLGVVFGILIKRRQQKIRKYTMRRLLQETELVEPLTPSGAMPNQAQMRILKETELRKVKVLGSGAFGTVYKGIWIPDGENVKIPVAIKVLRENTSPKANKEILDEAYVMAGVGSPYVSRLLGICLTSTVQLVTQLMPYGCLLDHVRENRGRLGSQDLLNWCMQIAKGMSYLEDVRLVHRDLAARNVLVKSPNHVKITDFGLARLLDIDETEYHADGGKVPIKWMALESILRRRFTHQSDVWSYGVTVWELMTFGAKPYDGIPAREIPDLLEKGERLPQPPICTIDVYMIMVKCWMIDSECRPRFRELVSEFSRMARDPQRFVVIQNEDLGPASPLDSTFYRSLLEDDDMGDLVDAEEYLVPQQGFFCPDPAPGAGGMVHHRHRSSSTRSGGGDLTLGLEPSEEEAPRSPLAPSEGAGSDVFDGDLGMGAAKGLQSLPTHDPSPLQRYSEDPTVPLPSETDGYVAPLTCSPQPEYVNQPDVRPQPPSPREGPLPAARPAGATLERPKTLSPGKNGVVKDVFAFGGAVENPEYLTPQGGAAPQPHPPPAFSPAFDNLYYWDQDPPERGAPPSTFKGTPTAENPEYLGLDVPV
Test: Inhibition of recombinant human N-terminal GST-tagged HER2 (679 to 1255 residues) expressed in baculovirus infected Sf9 cells at 10 uM using poly[Glu:Tyr] (4:1) as substrate after 40 mins by Kinase-Glo plus luminescence assay relative to control
Settings: not given

inhibition [%] | SMILES
65 | Cc1oc2ncnc(Nc3ccc(OCc4cccc(F)c4)c(Cl)c3)c2c1C(=O)O
6 | CCOC(=O)c1c(C)oc2ncnc(Nc3ccc(OCc4cccc(F)c4)c(Cl)c3)c12

Test system: A549
Test: Induction of apoptosis in human A549 cells assessed as necrotic cells after 24 hrs by Annexin V-FITC/propidium iodide staining based flow cytometry (reference value: 0.17%)
Type: functional
Settings: not given

SMILES | Activity [%]
Cc1oc2ncnc(Nc3ccc(OCc4cccc(F)c4)c(Cl)c3)c2c1C(=O)O | 0.8
Cc1oc2ncnc(Nc3cccc(Br)c3)c2c1C(=O)O | 0.66
COc1cc2ncnc(Nc3ccc(F)c(Cl)c3)c2cc1OCCCN1CCOCC1 [GEFITINIB] | 1.67
CCOC(=O)c1c(C)oc2ncnc(Nc3ccc(OCc4cccc(F)c4)c(Cl)c3)c12 | 1.67

Test system: A549
Test: Induction of apoptosis in human A549 cells assessed as live cells after 24 hrs by Annexin V-FITC/propidium iodide staining based flow cytometry (reference value: 97.93%)
Type: functional
Settings: not given

SMILES | Activity [%]
Cc1oc2ncnc(Nc3ccc(OCc4cccc(F)c4)c(Cl)c3)c2c1C(=O)O | 88.77
Cc1oc2ncnc(Nc3cccc(Br)c3)c2c1C(=O)O | 92.02
COc1cc2ncnc(Nc3ccc(F)c(Cl)c3)c2cc1OCCCN1CCOCC1 [GEFITINIB] | 84.12
CCOC(=O)c1c(C)oc2ncnc(Nc3ccc(OCc4cccc(F)c4)c(Cl)c3)c12 | 81.19

Test system: A549
Test: Cell cycle arrest in human A549 cells assessed as accumulation at pre-G1 phase after 24 hrs by propidium iodide staining based flow cytometry relative to control
Type: functional
Settings: not given

SMILES | fold change (FC)
Cc1oc2ncnc(Nc3ccc(OCc4cccc(F)c4)c(Cl)c3)c2c1C(=O)O | 17
Cc1oc2ncnc(Nc3cccc(Br)c3)c2c1C(=O)O | 12
CCOC(=O)c1c(C)oc2ncnc(Nc3ccc(OCc4cccc(F)c4)c(Cl)c3)c12 | 32

Test system: Ehrlich
Test: Antitumor activity against mouse EAC cells implanted in albino mouse assessed as tumor growth inhibition administered orally once daily for 8 consecutive days
Type: functional
Settings: not given

SMILES | Activity
CCOC(=O)c1c(C)oc2ncnc(Nc3ccc(OCc4cccc(F)c4)c(Cl)c3)c12 | Dose-dependent effect
